Data: paper PMC6264460, “Lead Generation and Optimization Based on Protein-Ligand Complementarity” (Molecules, 2010)

Biological target: T1, JNK3 (Homo sapiens, UniProt P53779)
T1 construct: made in house
Assay: Inhibition of ATP hydrolysis by JNK3 (coupled NADH oxidation assay)
Type: biochemical
Settings: ATP hydrolysis by JNK3, 100 nM JNK3, pH 7.6, 1% DMSO
Excerpt: To measure the inhibitory activity of the Z1208, we used the following assay system: adenosine triphosphate (ATP), phosphoenolpyruvate (PEP), nicotinamide adenine dinucleotide (NADH), and a solution mixture of pyruvate kinase and L-lactate dehydrogenase (PK-L-LDH) were purchased from Roche Diagnostics. Other reagents were purchased from Sigma-Aldrich. JNK3 was expressed and purified by the method of Xie et al.. After a purification step, JNK3 was activated by GST-fused MKK7 and further purified against a glutathione-fixed column. […] The conversion of NADH was measured by kinetic monitoring with SpectraMax 190 (Molecular Devices).

T1 sequence (P53779 40-402 limits assumed): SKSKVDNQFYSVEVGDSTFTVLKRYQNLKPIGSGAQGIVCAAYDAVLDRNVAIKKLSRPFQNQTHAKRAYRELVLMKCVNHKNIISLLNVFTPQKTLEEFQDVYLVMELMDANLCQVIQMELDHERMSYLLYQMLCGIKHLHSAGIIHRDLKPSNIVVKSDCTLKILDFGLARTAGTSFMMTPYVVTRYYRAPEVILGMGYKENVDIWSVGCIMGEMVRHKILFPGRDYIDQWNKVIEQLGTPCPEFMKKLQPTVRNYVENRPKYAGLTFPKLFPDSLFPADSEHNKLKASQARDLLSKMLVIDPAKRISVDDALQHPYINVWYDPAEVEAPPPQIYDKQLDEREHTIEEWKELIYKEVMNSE

CN1c2c[nH]nc2C(O)=C(C(=O)Nc2ccc(Cl)c(Cl)c2)S1(=O)=O [Z1208-8]
IC50: 62.9 µM
